Here are results for 89 molecules from a melting point compilation (Tetko et al.; mined from patent text by program, amines drawn as free bases though some values may be those of a salt).

Usually melting point stands for the temperature, or range, at which the solid turns liquid. `CCCCCCCCCCCCCCOc1ccc([N+](=O)[O-])cc1`: the melting point was in the range of 57 to 60 °C.

Molecule `O=C(C=Cc1ccc(N2CCCC2)cc1)c1ccc2c(c1)CCCC2` came in with a melting point of 167 to 169 °C.

`CCCCCCCCCCCCCCCCCCOc1cccc(NCC(=O)OCc2ccccc2)c1` showed a melting point of 55 to 60 °C.

`CC(C)(C)CC(C)(C)c1cc(N=Nc2ccc(-c3ccccc3)cc2[N+](=O)[O-])c(O)c(C(C)(C)c2ccccc2)c1` displayed a melting point of 176 to 179 °C.

The molecule `COc1cc(Oc2csc(C(F)(F)F)c2)nc(-c2ccc(C(F)(F)F)cc2)n1` showed a melting point of 91 to 93 °C.

In turn, `CCCS(=O)(=O)NCC1CC2C=CC1C2` (centres undefined) yielded a melting point of 51 to 52 °C.

As to `CC[C@H](C1CC1)n1cc(Cl)nc(N2CCc3cc(Br)cc(Cl)c32)c1=O`, the melting point lay within 126 to 127 °C.

Regarding `CCCONC(=O)c1c(Cl)ccc(C(=O)OC)c1Cl`, the melting point lay within 80 to 81 °C.

Consider `CCc1nc(CO)n(CC)c1Sc1cc(C#N)cc(C#N)c1`, for which the melting point was 141 to 143 °C.

Regarding `CC(=O)NC[C@@H]1C[C@H]1c1cccc2nn(C)cc12` (relative stereo), the melting point fell in the range of 145 to 147 °C.

Molecule `Cc1ccsc1-c1nc(COc2ccc(CCCn3ccnc3)cc2)co1` had a melting point of 72 to 73 °C.

For the molecule `Clc1ccc2c(c1)C(c1ccccc1)=NCc1n[nH]nc1-2`, the melting point is 199 to 200 °C.

`CCCCc1nc2c(N)nc3ccccc3c2n1CCNC(=S)Nc1ccc(-c2c3ccc(=O)cc-3oc3cc(O)ccc23)c(C(=O)O)c1`: the melting point is greater than 245 °C.

Regarding `CCOC(=O)c1nc(CC)[nH]c1C(=O)OCC`, the melting point is 83 to 84 °C.

Regarding `Cn1cc(C2=C(c3cn(CCCNc4ncccn4)c4ccccc34)C(=O)NC2=O)c2ccccc21`, the melting point lay in the range of 214 to 215 °C.

Consider `CCCC(=O)C1=C(O)CC(c2c(C)c(C)c3c(c2C)CC(C)(C)O3)CC1=O` (centres undefined), for which the melting point was 83 °C.

In the case of `Cc1ccc2c(c1)C(=O)N(C)Cc1c(C(N)=O)ncn1-2`, the melting point was 290 to 294 °C.

As to `N#Cc1cc2ccc(OCC3CO3)cc2o1` (centres undefined), the melting point lay within 90 to 92 °C.

In turn, `CC(O)CNS(=O)(=O)c1ccc(Nc2nc(OCC3CCCCC3)c3nc[nH]c3n2)cc1` (centres undefined) had a melting point of 236 to 238 °C.

`Cn1c2ccccc2c(=O)c2cccn21`: the melting point lay in the range of 154 to 156 °C.

Molecule `Cc1ccc(C(=O)NC(NC(=NC#N)Nc2ccc(Cl)nc2)C(C)(Cl)Cl)cc1` (centres undefined) displayed a melting point of 198 to 200 °C.

`Clc1cc(Br)ccc1OCc1ccccc1` had a melting point of 59.5 to 60 °C.

In turn, `O=C(Cc1ccc(-c2cccc(F)c2)cc1)Nc1n[nH]c2c1CCC2` registered a melting point of 180 to 181 °C.

In turn, `CC[Si](CC)(CC)c1cccc2c1oc1c([Si](CC)(CC)CC)cccc12` yielded a melting point of 59 to 61 °C.

`CC(C)Oc1cccc(NC(=O)NCc2c(-c3ccccc3)c3cc(Cl)ccc3n2C)c1` showed a melting point of 218 to 220 °C.

`CCNC(=O)n1c([Si](C)(C)C)cc2ccccc21` showed a melting point of 96 to 99 °C.

On to `CC(C)(C)OC(=O)NCCCCCCO`, for which the melting point fell in the range of 36 to 37 °C.

On to `O=c1[nH]c2cc(Cl)ccc2c(O)c1-c1ccccc1[N+](=O)[O-]`, for which the melting point was 298 to 300 °C.

For the molecule `CN1CCN(CCCN2N=C3C(=Cc4ccccc4)CSCC3C2c2ccccc2)CC1` (centres undefined), the melting point lay in the range of 90.5 to 92.5 °C.

Molecule `[N-]=[N+]=NCc1nc2ccccc2n1Cc1ccc(Cl)c(Cl)c1` showed a melting point of 78 to 80 °C.

The molecule `O=C1NC(=Cc2ccccc2)C(NCc2ccccc2)=C1[N+](=O)[O-]` yielded a melting point of 218 °C.

On to `CS(=O)c1ccc(-c2coc3ccc(-c4nnc(N)o4)cc23)cc1` (centres undefined), for which the melting point lay within 284 to 285 °C.

For `CC(C)(C)c1cc(C(C)(CC(=O)O)c2ccc(O)c(C(C)(C)C)c2)ccc1O`, the melting point was found to be 156 °C.

In the case of `O=C(O)c1ccc(CNS(=O)(=O)c2ccc(Br)cc2)cc1`, the melting point fell in the range of 268 to 271 °C.

In turn, `Cc1c(-c2ccccc2)nc2cc(Cl)ccc2c1C(=O)N[C@@H](C)C1CCCCC1` showed a melting point of 204 to 207 °C.

For the molecule `C=C(C)CN1C[C@H](C)Nc2c(cc(Cl)cc2[N+](=O)[O-])C1=O`, the melting point amounted to 66.5 °C.

`CN1CCC(c2c[nH]c3ccc(C(=O)c4ccc(Cl)cc4)cc23)CC1`: the melting point was determined as 133 °C.

In turn, `O=C(O)C1(CO)CCc2cc(C3CCCCC3)c(Cl)cc21` (centres undefined) had a melting point of 195 to 197 °C.

The molecule `CCCCCCCCCCN1C(=O)C=CC1=O` displayed a melting point of 48 to 49 °C.

For `CS(=O)c1c(Br)nn(-c2c(Cl)cc(C(F)(F)F)cc2Cl)c1N` (centres undefined), the melting point lay within 135 to 136 °C.

With `CS(=O)(=O)N1CCN(c2ccc(O)cc2)CC1`, the melting point came out at 205 °C.

Consider `CCOP(=O)(CNCc1ccnc(-c2cc(C(C)(C)C)c(O)c(C(C)(C)C)c2)c1)OCC`, for which the melting point was in the range of 66 to 69 °C.

Regarding `Nc1cccc(-c2nn(Cc3oc4ccccc4c(=O)c3-c3ccccc3)c3ncnc(N)c23)c1`, the melting point was in the range of 157 to 159 °C.

Molecule `Cn1cnc2cc(NC(=O)c3cc4cc(F)ccc4n3Cc3cccc(F)c3)cnc21` showed a melting point of 235 to 236 °C.

`CCCCCCCCCCCCC(O)CN(CCC#N)CCCCCCCCCCCCN(CCC#N)CC(O)CCCCCCCCCCCC` (centres undefined) returned a melting point of 37 to 38 °C.

Take `Cc1ccc(NC(=O)C(C)(C)C)c(-c2cncc(Br)n2)c1`: the melting point was 74 to 76 °C.

As for `CON1CCC2(CC1)SC(=O)C(c1c(C)cc(C)cc1C)=C2O`, the melting point is 67 to 71 °C.

For the molecule `CCOC(=O)Cc1cccc(Sc2ccccc2Cl)c1[N+](=O)[O-]`, the melting point is 78 to 80 °C.

On to `CC1(C)CCC(C)(C)c2cc(C#CCc3ccc(C(=O)O)cc3)ccc21`, for which the melting point lay within 159 to 160 °C.

With `Cc1cn(S(=O)(=O)c2ccccc2)c2ccccc12`, the melting point was in the range of 116 to 120 °C.

Regarding `CN(C)c1cc2c(cc1Cl)NC(=O)CC(c1cccc(-c3csc(N)n3)c1)=N2`, the melting point was in the range of 247 to 248 °C.

Turning to `CC12CC=C3C4=C(CCC3C1CCC2=O)CC1(CC4)OCCO1` (centres undefined), the melting point was in the range of 110 to 112 °C.

`CC(C)N1C(=O)c2ccccc2N(C(=O)c2cc(Oc3ccc(C(F)(F)F)cc3Cl)ccc2[N+](=O)[O-])S1(=O)=O` displayed a melting point of 125 to 128 °C.

`NC(=O)C1CCc2c(C(=O)c3ccccc3)cccc21` (centres undefined) displayed a melting point of 164 to 166 °C.

Turning to `CC(=O)OCc1cc(=O)n2ccsc2n1`, the melting point was 144 to 145 °C.

Take `O=C(O)C(Oc1ccc(F)c(C(F)(F)F)c1)c1ccc(Cl)cc1` (centres undefined): the melting point came to 106 °C.

Turning to `CC1(C)Cc2cc(O)c(Cl)c(Cl)c2C1=O`, the melting point worked out at 273 °C.

Turning to `CC=C1CCC2C3CCC4CC(O)CCC4(C)C3C(=NO)CC12C` (centres undefined), the melting point was in the range of 233 to 235 °C.

Molecule `O=C(O)CCCc1ccc(F)cc1F` gave a melting point of 45 to 47 °C.

Molecule `CC(C)(C)OC(=O)NN(C(=O)OC(C)(C)C)c1ccc(OCC(F)(F)F)cc1` came in with a melting point of 140 to 141 °C.

In the case of `CC(C)CCC1(C(F)(F)F)NC(=O)Nc2ccc(F)cc21` (racemic), the melting point came out at 179 °C.

Molecule `CC(C)c1ccc(CCNc2ncnc3c(F)cccc23)cc1` displayed a melting point of 170 to 172 °C.

`O=c1oc(-c2ccccc2)cc(O)c1C(CC1CCCC1)SC1CCCCC1` (centres undefined) displayed a melting point of 157 to 160 °C.

Turning to `CCOC(=O)Cn1c(=O)n(Cc2ccc(Cl)c(Cl)c2)c(=O)c2c(C)c(Br)sc21`, the melting point is 166 to 167 °C.

In turn, `CCOC(=O)CCCOc1ccc(-c2ccc(OCC)cc2)cc1C=O` came in with a melting point of 69 to 70 °C.

For `O=C(C=Cc1ccncc1)c1cccs1`, the melting point was in the range of 150 to 152 °C.

Consider `CCC1(C)C(=O)c2cc(OC)c(Cl)c(Cl)c2C1=O` (centres undefined), for which the melting point is 157 °C.

The molecule `Cn1nc(-c2ccc(OC(F)(F)F)cc2)cc1CO` came in with a melting point of 91 to 93 °C.

For the molecule `O=c1ccn(-c2ccc(OC(F)F)cc2)nc1-c1ccnn1-c1ccccc1`, the melting point was in the range of 175 to 176 °C.

Consider `CCOC(=O)c1c(C)nc(OCC)c2nnn(CC)c12`, for which the melting point was in the range of 56 to 58 °C.

The molecule `CCOC(=O)CCCOc1cccc2cc(C(C)=O)oc12` gave a melting point of 47.1 to 48.4 °C.

In turn, `CCCCCCCCC1CC1C(N)=O` (centres undefined) gave a melting point of 109 to 110 °C.

The molecule `CCCC(=O)c1cnc2ccc(O)cc2c1Nc1ccc(O)cc1C` registered a melting point of 242 to 244 °C.

With `Nc1cc(OCc2ccccc2)nc(N)n1`, the melting point turned out to be 195 °C.

`O=C(Nc1ccc(C(=O)N2Cc3ccccc3Cc3ccccc32)cc1)C1CC=CCC1` (centres undefined) gave a melting point of 234 to 236 °C.

With `CCN(CC)CC(=O)OC1CC2(C)C(C(C)=O)CCC2C2CCC3CC(O)C=CC3(C)C12` (centres undefined), the melting point fell in the range of 134 to 138 °C.

The molecule `CCc1nc(Br)c(Br)[nH]1` gave a melting point of 149 to 150 °C.

`O=C1NC(=O)C(Cc2ccc(OCC34CC5CC(CC(C5)C3)C4)cc2)S1` (centres undefined) returned a melting point of 188 to 191 °C.

As to `Cn1c(CC#N)ccc1C(=O)c1ccccc1Cl`, the melting point lay within 80 to 85 °C.

As for `CCC(=O)N(CC)c1cccc(-c2ccc3nnc(N)n3n2)c1`, the melting point was in the range of 199 to 200 °C.

On to `CCCCC1(CCCC)CS(=O)(=O)c2ccc(N(C)C)cc2[C@@H](c2ccc(OCCCCC(=O)O)cc2)[C@H]1O`, for which the melting point lay within 76 to 79 °C.

On to `COc1cc(C(=O)OC(C)(C)C)ccc1Cn1cc(C=O)c2ccc(C(=O)NCC3CCCC3)cc21`, for which the melting point was in the range of 134 to 135 °C.

As to `O=c1ccn(-c2cccc(C(F)(F)F)c2)nc1-c1ccnn1-c1ccccc1Cl`, the melting point fell in the range of 139 to 140 °C.

Take `COc1ccc(/C=C/c2ncccc2C(=O)O)cc1`: the melting point was in the range of 230 to 233 °C.

With `Cc1c(-c2ccc3c(c2)OCO3)[nH]c2ccc(OCc3ccccc3)cc12`, the melting point was in the range of 142 to 145 °C.

`Cc1cc(NC2CCCCC2)c2[nH]ncc2n1` came in with a melting point of 287 to 289 °C.

`CS(=O)(=O)C(=C1CN(C(c2ccccc2)c2ccccc2)C1)c1ccccc1Cl` had a melting point of 204 °C.

Take `O=C(O)c1ccc(Cn2c(=O)sc3ccc(C#CCc4ccccc4)cc3c2=O)cc1`: the melting point lay within 240 to 242 °C.

In turn, `CCOC(=O)Cc1cccc(C(=O)c2ccc(Br)cc2)c1N` displayed a melting point of 107 to 109 °C.
